Values after ≈ are worked out from the molar mass of the structure shown.
Key:
[1] = test system: Mycobacterium tuberculosis; experiment: Antitubercular activity against dormant Mycobacterium tuberculosis H37Ra assessed as growth inhibition at 30 ug/mL by XTT reduction menadione assay; type: functional; settings: read-out: GI
[2] = test system: Mycobacterium bovis BCG str. ATCC 35743; experiment: Antitubercular activity against dormant Mycobacterium bovis BCG ATCC 35743 assessed as growth inhibition at 10 ug/mL by NR assay; type: functional
[3] = test system: Mycobacterium bovis BCG str. ATCC 35743; experiment: Antitubercular activity against dormant Mycobacterium bovis BCG ATCC 35743 assessed as growth inhibition at 30 ug/mL by NR assay; type: functional
[4] = test system: Mycobacterium bovis BCG str. ATCC 35743; experiment: Antitubercular activity against dormant Mycobacterium bovis BCG ATCC 35743 assessed as growth inhibition at 3 ug/mL by NR assay; type: functional
[5] = test system: Mycobacterium tuberculosis; experiment: Antitubercular activity against dormant Mycobacterium tuberculosis H37Ra assessed as growth inhibition at 3 ug/mL by XTT reduction menadione assay; type: functional; settings: read-out: GI
[6] = Cytotoxicity against human MCF7 cells at 3 ug/mL by MTT assay; type: cell-based; settings: read-out: INH
[7] = Cytotoxicity against human A549 cells at 10 ug/mL by MTT assay; type: cell-based; settings: read-out: INH
[8] = Cytotoxicity against human MCF7 cells at 10 ug/mL by MTT assay; type: cell-based; settings: read-out: INH
[9] = Cytotoxicity against human MCF7 cells at 30 ug/mL by MTT assay; type: cell-based; settings: read-out: INH
[10] = Cytotoxicity against human HCT116 cells at 10 ug/mL by MTT assay; type: cell-based, HCT-116; settings: read-out: INH
[11] = Cytotoxicity against human A549 cells at 3 ug/mL by MTT assay; type: cell-based; settings: read-out: INH
[12] = Cytotoxicity against human HCT116 cells at 30 ug/mL by MTT assay; type: cell-based, HCT-116; settings: read-out: INH
[13] = Cytotoxicity against human A549 cells at 30 ug/mL by MTT assay; type: cell-based; settings: read-out: INH
[14] = test system: Mycobacterium tuberculosis; experiment: Antitubercular activity against dormant Mycobacterium tuberculosis H37Ra by XTT reduction menadione assay; type: functional, organism-based
[15] = Cytotoxicity against human HCT116 cells at 3 ug/mL by MTT assay; type: cell-based, HCT-116; settings: read-out: INH
[16] = (§1) Antitubercular activity against dormant Mycobacterium bovis BCG ATCC 35743 by NR assay; type: functional, Mycobacterium bovis BCG str. ATCC 35743
[17] = test system: Mycobacterium bovis BCG str. ATCC 35743; experiment: as §1; type: functional
[18] = test system: Mycobacterium tuberculosis; experiment: Antitubercular activity against dormant Mycobacterium tuberculosis H37Ra assessed as growth inhibition at 10 ug/mL by XTT reduction menadione assay; type: functional; settings: read-out: GI
[19] = test system: Pseudomonas; experiment: Antibacterial activity against Pseudomonas after 18 hrs by broth dilution method; type: functional, organism-based
[20] = test system: Escherichia coli; experiment: Antibacterial activity against Escherichia coli after 18 hrs by broth dilution method; type: functional, organism-based
[21] = test system: Bacillus subtilis; experiment: Antibacterial activity against Bacillus subtilis after 18 hrs by broth dilution method; type: functional, organism-based
[22] = test system: Staphylococcus aureus; experiment: Antibacterial activity against Staphylococcus aureus after 18 hrs by broth dilution method; type: functional, organism-based

| Structure (SMILES) | inhibition of growth at 30 µg/mL [1] [%] | growth inhibition (GI) [2] [%] | growth inhibition (GI) [3] [%] | growth inhibition (GI) [4] [%] | inhibition of growth at 3 µg/mL [5] [%] | cytotoxicity at 3 ug/mL [6] [%] | cytotoxicity at 10 ug/mL [7] [%] | cytotoxicity at 10 ug/mL [8] [%] | cytotoxicity at 30 ug/mL [9] [%] | cytotoxicity at 10 ug/mL [10] [%] | cytotoxicity at 3 ug/mL [11] [%] | cytotoxicity at 30 ug/mL [12] [%] | cytotoxicity at 30 ug/mL [13] [%] | IC50 [14] [µg/mL] | IC90 [14] [µg/mL] | cytotoxicity at 3 ug/mL [15] [%] | IC50 [16] [µg/mL] | IC90 [17] [µg/mL] | inhibition of growth at 10 µg/mL [18] [%] | also measured |
| --- | --- | --- | --- | --- | --- | --- | --- | --- | --- | --- | --- | --- | --- | --- | --- | --- | --- | --- | --- | --- |
| COc1ccc(C2SCC(=O)N2c2ccc(Cl)cc2)cc1 (stereo unspecified) | 9.5 | -0.7 | 1.6 | 5.3 | 37.6 | 0 | 0 | 0 | 38.6 | -2.3 | -4 | 12 | 0 | > 30 | > 30 | -2.9 | > 30 | > 30 | 18 |  |
| CO[C@H]1/C=C/O[C@@]2(C)Oc3c(C)c(O)c4c(O)c(c(/C=N/N5CCN(C)CC5)c(O)c4c3C2=O)NC(=O)/C(C)=C\C=C\[C@H](C)[C@H](O)[C@@H](C)[C@@H](O)[C@@H](C)[C@H](OC(C)=O)[C@@H]1C [RIFAMPIN] |  |  |  |  |  |  |  |  |  |  |  |  |  |  | 0.043 (≈ 0.0523 µM) |  | 0.0016 (≈ 0.00194 µM) | 0.041 (≈ 0.0498 µM) |  |  |
| Cc1ccc(C2SCC(=O)N2c2ccc(C)cc2)cc1 (stereo unspecified) | -27.4 | -1.2 | -1.9 | -12.5 | -18.5 | -9.2 | 0 | 16.4 | 19.6 | 16.7 | 8.6 | 45 | -13.4 | > 30 | > 30 | 9.7 | > 30 | > 30 | -26.4 |  |
| NC[C@H]1O[C@H](O[C@H]2[C@H](O)[C@@H](O[C@H]3O[C@H](CO)[C@@H](O)[C@H](N)[C@H]3O)[C@H](N)C[C@@H]2N)[C@H](O)[C@@H](O)[C@@H]1O [KANAMYCIN] |  |  |  |  |  |  |  |  |  |  |  |  |  |  |  |  |  |  |  | IC50 [19]: 0.49 µg/mL (≈ 1.01 µM); MIC [19]: 0.012 µg/mL (≈ 0.0248 µM); IC50 [20]: 1.62 µg/mL (≈ 3.34 µM); MIC [20]: 0.67 µg/mL (≈ 1.38 µM); IC50 [21]: 1.35 µg/mL (≈ 2.79 µM); MIC [21]: 0.25 µg/mL (≈ 0.516 µM); IC50 [22]: > 30 µg/mL; MIC [22]: 16 µg/mL (≈ 33 µM) |
| Cc1ccc(C2SCC(=O)N2c2ccccc2)cc1 (stereo unspecified) | 17.8 | 0.2 | 16.6 | 2 | 12 | 0 | -12.6 | 16.9 | 40.7 | -11.9 | -10.3 | -9.8 | 27.8 | > 30 | > 30 | -25.8 | > 30 | > 30 | 31 |  |
| NNC(=O)c1ccncc1 [ISONIAZID] |  |  |  |  |  |  |  |  |  |  |  |  |  |  | 0.075 (≈ 0.547 µM) |  | 0.0023 (≈ 0.0168 µM) | 0.045 (≈ 0.328 µM) |  |  |
| Cc1ccc(N2C(=O)CSC2c2ccc(Cl)cc2)cc1 (stereo unspecified) | 5.2 | 29.2 | 5.3 | -6.6 | 34 | -0.9 | 0 | 9.6 | 11.3 | 7.2 | 1.3 | 28.8 | 0 | > 30 | > 30 | -8.6 | > 30 | > 30 | 38.1 |  |
| O=C1CSC(c2ccccc2)N1c1ccc(Br)cc1 (stereo unspecified) | -0.7 | -2.7 | -35.7 | -14 | -6.9 | -2.6 | 0 | 9.4 | 23.8 | 8.2 | 0 | 22 | 0 | > 30 | > 30 | -7.3 | > 30 | > 30 | -27.5 |  |
| O=C1CSC(c2ccc(O)cc2)N1c1ccc(Cl)cc1 (stereo unspecified) | 16.3 | -15.5 | -2.2 | 6 | 29.8 | 24.9 | 0 | 32.2 | 43.4 | 10.4 | 0 | 20.1 | 0 | > 30 | > 30 | 4.3 | > 30 | > 30 | 10.3 |  |
| CC1(C)S[C@@H]2[C@H](NC(=O)[C@H](N)c3ccccc3)C(=O)N2[C@H]1C(=O)O [AMPICILLIN] |  |  |  |  |  |  |  |  |  |  |  |  |  |  |  |  |  |  |  | IC50 [19]: 4.36 µg/mL (≈ 12.5 µM); MIC [19]: 2.83 µg/mL (≈ 8.1 µM); IC50 [20]: 1.46 µg/mL (≈ 4.18 µM); MIC [20]: 0.41 µg/mL (≈ 1.17 µM); IC50 [21]: 10.3 µg/mL (≈ 29.5 µM); MIC [21]: 5.89 µg/mL (≈ 16.9 µM); IC50 [22]: 1 µg/mL (≈ 2.86 µM); MIC [22]: 0.12 µg/mL (≈ 0.343 µM) |
| O=C1CSC(c2ccc(Cl)cc2)N1c1ccc(F)cc1 (stereo unspecified) | -45.6 | -9.9 | -1 | -2.1 | 8.8 | 12.4 | 0 | 11.5 | 26.1 | 0.2 | 0 | 34.5 | 0 | > 30 | > 30 | -6.2 | > 30 | > 30 | -3.2 |  |
| O=C1CSC(c2ccc([N+](=O)[O-])cc2)N1c1ccccc1 (stereo unspecified) | -8.8 | 12.5 | 14.4 | 17.8 | -17.1 | 47 | 6.7 | 49.9 | 52.6 | 9 | 0.3 | 29.3 | 8.8 | > 30 | > 30 | -11.5 | > 30 | > 30 | -30.4 |  |
| Cc1ccc(N2C(=O)CSC2c2ccc([N+](=O)[O-])cc2)cc1 (stereo unspecified) | 14.4 | -6.1 | -7.1 | -2 | 21.2 | 34.6 | 0 | 38.8 | 45.6 | -14.6 | -11.3 | -12.4 | -10.3 | > 30 | > 30 | -16.1 | > 30 | > 30 | -5.4 |  |
| O=C1CSC(c2ccc(F)cc2)N1c1ccc(Cl)cc1 (stereo unspecified) | 30.2 | -3.8 | -1.3 | -3.2 | 8.8 | 32.2 | 0 | 38.1 | 43.7 | 18.6 | -7 | 50.4 | 4.9 | > 30 | > 30 | 9.4 | > 30 | > 30 | -14.6 |  |
| O=C1CSC(c2ccc(Cl)cc2)N1c1ccc(Cl)cc1 (stereo unspecified) | -19.8 | 0 | -0.8 | -20.2 | 11.8 | 14.5 | 0 | 16.6 | 14.8 | 1.3 | 0 | 15.9 | 0 | > 30 | > 30 | -8.1 | > 30 | > 30 | 24.1 |  |

Reference: ChEMBL document CHEMBL3779788, “Facile synthesis of 1,3-thiazolidin-4-ones as antitubercular agents” (Bioorg Med Chem Lett, 2016)
